Measured values reported in patent publication US20260125382A1, “COMPOUNDS FOR INHIBITING OR DEGRADING CDK2 AND/OR CDK9 AND MEDICINAL USE THEREOF” (KOREA RESEARCH INSTITUTE OF CHEMICAL TECHNOLOGY, priority 2022, published 2026).

Columns and labels:
CDK2 = molecular target: T1, CDK2 (Homo sapiens, UniProt P24941); assay: CDK protein degradation activity (Western blotting), CDK2; assay type: cell-based; details: MDA-MB-231 cells, 16 hours, Western blot
T1 construct: endogenous in cells; host or cells: MDA-MB-231
How it was run: (§1)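 CDK2 and CDK9 protein levels measured by Western blot with densitometry, using tubulin as loading reference. Cells were MDA-MB-231, exposed for 16 h to 100 nM, 1 μM or 10 μM compound or to DMSO.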

CDK9 = molecular target: T2, CDK9 (Homo sapiens, UniProt P50750); assay: CDK protein degradation activity (Western blotting), CDK9; assay type: cell-based; details: MDA-MB-231 cells, 16 hours, Western blot
T2 construct: endogenous in cells; host or cells: MDA-MB-231
T2 sequence (P50750 whole entry): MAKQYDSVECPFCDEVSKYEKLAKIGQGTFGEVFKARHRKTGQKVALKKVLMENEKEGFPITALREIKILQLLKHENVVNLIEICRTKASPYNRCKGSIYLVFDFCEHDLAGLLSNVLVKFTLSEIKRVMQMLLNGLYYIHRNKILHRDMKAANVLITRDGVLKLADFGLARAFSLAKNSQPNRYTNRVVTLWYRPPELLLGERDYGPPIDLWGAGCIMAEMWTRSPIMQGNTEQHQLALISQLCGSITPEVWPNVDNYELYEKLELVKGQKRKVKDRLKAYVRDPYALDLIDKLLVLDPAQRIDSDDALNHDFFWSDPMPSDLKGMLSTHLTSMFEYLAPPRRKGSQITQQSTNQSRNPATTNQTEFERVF
How it was run: as §1

Enzyme degradation CDK2 (% remaining) @ 0.1 μM (CDK2)	Enzyme degradation CDK2 (% remaining) @ 1 μM (CDK2)	Enzyme degradation CDK2 (% remaining) @ 10 μM (CDK2)	Enzyme degradation CDK9 (% remaining) @ 0.1 μM (CDK9)	Enzyme degradation CDK9 (% remaining) @ 1 μM (CDK9)	Enzyme degradation CDK9 (% remaining) @ 10 μM (CDK9)	SMILES
10/10/10%	10/10/10%	10/10/10%	0/0/0%	0/0/0%	0/0/0%	O=C1CC[C@H](N2C(=O)c3cccc(NCC(=O)N4CCC(CN5CCN(c6ccc(Nc7ncnc8c7ncn8C7CC(NC(=O)c8cccc(Cl)n8)C7)cc6)CC5)CC4)c3C2=O)C(=O)N1 (stereo partly drawn) [Compound 419, 6-chloro-N-((1s,3s)-3-(6-((4-(4-((1-((2-(2,6-dioxopiperidin-3-yl)-1,3-dioxoisoindolin-4-yl)glycyl)piperidin-4-yl)methyl)piperazin-1-yl)phenyl)amino)-9H-purin-9-yl)cyclobutyl)picolinamide]
10/10/10%	10/10/10%	10/10/10%	0/0/0%	0/0/0%	0/0/0%	N#Cc1cccc(C(=O)N[C@H]2C[C@@H](n3cnc4c(Nc5ccc(N6CCN(CC7CCN(C(=O)CNc8cccc9c8C(=O)N(C8CCC(=O)NC8=O)C9=O)CC7)CC6)cc5)ncnc43)C2)n1 (stereo partly drawn) [Compound 420, 6-cyano-N-((1s,3s)-3-(6-((4-(4-((1-((2-(2,6-dioxopiperidin-3-yl)-1,3-dioxoisoindolin-4-yl)glycyl)piperidin-4-yl)methyl)piperazin-1-yl)phenyl)amino)-9H-purin-9-yl)cyclobutyl)picolinamide]
60/60/60%	60/60/60%	60/60/60%	0/0/0%	0/0/0%	0/0/0%	O=C1CC[C@H](N2C(=O)c3ccc(N4CCC(C(=O)N5CCC(CN6CCC(CCNc7ncnc8c7ncn8[C@H]7C[C@@H](NC(=O)Cc8ccccc8)C7)CC6)CC5)CC4)cc3C2=O)C(=O)N1 [Compound 421, N-((1s,3s)-3-(6-((2-(1-((1-(1-(2-(2,6-dioxopiperidin-3-yl)-1,3-dioxoisoindolin-5-yl)piperidin-4-carbonyl)piperidin-4-yl)methyl)piperidin-4-yl)ethyl)amino)-9H-purin-9-yl)cyclobutyl)-2-phenylacetamide]
30%	20%	20%	20%	10%	10%	O=C1CC[C@H](N2C(=O)c3ccc(N4CCC(CN5CCC(CCNc6ncnc7c6ncn7C6CC(NC(=O)Cc7ccccc7)C6)CC5)CC4)cc3C2=O)C(=O)N1 (stereo partly drawn) [Compound 423, N-((1s,3s)-3-(6-((2-(1-((1-(2-(2,6-dioxopiperidin-3-yl)-1,3-dioxoisoindolin-5-yl)piperidin-4-yl)methyl)piperidin-4-yl)ethyl)amino)-9H-purin-9-yl)cyclobutyl)-2-phenylacetamide]
10/10/10%	10/10/10%	10/10/10%	0/0/0%	0/0/0%	0/0/0%	O=C1CC[C@H](n2nnc3ccc(N4CCC(CN5CCN(c6ccc(Nc7ncnc8c7ncn8[C@H]7C[C@@H](NC(=O)c8cccc(C(F)(F)F)n8)C7)cc6)CC5)CC4)cc3c2=O)C(=O)N1 [Compound 424, N-((1s,3s)-3-(6-((4-(4-((1-(3-(2,6-dioxopiperidin-3-yl)-4-oxo-3,4-dihydrobenzo[d][1,2,3]triazin-6-yl)piperidin-4-yl)methyl)piperazin-1-yl)phenyl)amino)-9H-purin-9-yl)cyclobutyl)-6-(trifluoromethyl)picolinamide]
0/0/0%	0/0/0%	0/0/0%	0/0/0%	0/0/0%	0/0/0%	O=C1CC[C@H](N2C(=O)c3cccc(NCC(=O)N4CCC(CN5CCN(c6ccc(Nc7ncnc8c7ncn8[C@H]7C[C@@H](NC(=O)c8cccc(C(F)(F)F)n8)C7)cc6)CC5)CC4)c3C2=O)C(=O)N1 [Compound 425, N-((1s,3s)-3-(6-((4-(4-((1-((2-(2,6-dioxopiperidin-3-yl)-1,3-dioxoisoindolin-4-yl)glycyl)piperidin-4-yl)methyl)piperazin-1-yl)phenyl)amino)-9H-purin-9-yl)cyclobutyl)-6-(trifluoromethyl)picolinamide]
10%	10%	30%	0%	0%	20%	O=C1CC[C@H](N2C(=O)c3cccc(CCCN4CCC(CN5CCN(c6ccc(Nc7ncnc8c7ncn8C7CC(NC(=O)c8cccc(C(F)(F)F)n8)C7)cc6)CC5)CC4)c3C2=O)C(=O)N1 (stereo partly drawn) [Compound 426, N-((1s,3s)-3-(6-((4-(4-((1-(3-(2-(2,6-dioxopiperidin-3-yl)-1,3-dioxoisoindolin-4-yl)propyl)piperidin-4-yl)methyl)piperazin-1-yl)phenyl)amino)-9H-purin-9-yl)cyclobutyl)-6-(trifluoromethyl)picolinamide]
20/20/20%	20/20/20%	20/20/20%	0%	0%	20%	O=C1CC[C@H](N2C(=O)c3cccc(CCCCN4CCC(CN5CCN(c6ccc(Nc7ncnc8c7ncn8[C@H]7C[C@@H](NC(=O)c8cccc(C(F)(F)F)n8)C7)cc6)CC5)CC4)c3C2=O)C(=O)N1 [Compound 427, N-((1s,3s)-3-(6-((4-(4-((1-(4-(2-(2,6-dioxopiperidin-3-yl)-1,3-dioxoisoindolin-4-yl)butyl)piperidin-4-yl)methyl)piperazin-1-yl)phenyl)amino)-9H-purin-9-yl)cyclobutyl)-6-(trifluoromethyl)picolinamide]
10/10/10%	10/10/10%	10/10/10%	0/0/0%	0/0/0%	0/0/0%	O=C1CC[C@H](N2C(=O)c3cc(F)c(N4CCC(CN5CCN(c6ccc(Nc7ncnc8c7ncn8C7CC(NC(=O)c8cccc(F)n8)C7)cc6)CC5)CC4)cc3C2=O)C(=O)N1 (stereo partly drawn) [Compound 428, N-((1s,3s)-3-(6-((4-(4-((1-(2-(2,6-dioxopiperidin-3-yl)-6-fluoro-1,3-dioxoisoindolin-5-yl)piperidin-4-yl)methyl)piperazin-1-yl)phenyl)amino)-9H-purin-9-yl)cyclobutyl)-6-fluoropicolinamide]
10/10/10%	10/10/10%	10/10/10%	0/0/0%	0/0/0%	0/0/0%	O=C1CC[C@H](n2nnc3ccc(N4CCC(CN5CCN(c6ccc(Nc7ncnc8c7ncn8C7CC(NC(=O)c8cccc(F)n8)C7)cc6)CC5)CC4)cc3c2=O)C(=O)N1 (stereo partly drawn) [Compound 429, N-((1s,3s)-3-(6-((4-(4-((1-(3-(2,6-dioxopiperidin-3-yl)-4-oxo-3,4-dihydrobenzo[d][1,2,3]triazin-6-yl)piperidin-4-yl)methyl)piperazin-1-yl)phenyl)amino)-9H-purin-9-yl)cyclobutyl)-6-fluoropicolinamide]
10/10/10%	10/10/10%	10/10/10%	0/0/0%	0/0/0%	0/0/0%	O=C1CC[C@H](N2C(=O)c3cccc(NCC(=O)N4CCC(CN5CCN(c6ccc(Nc7ncnc8c7ncn8C7CC(NC(=O)c8cccc(F)n8)C7)cc6)CC5)CC4)c3C2=O)C(=O)N1 (stereo partly drawn) [Compound 430, N-((1s,3s)-3-(6-((4-(4-((1-((2-(2,6-dioxopiperidin-3-yl)-1,3-dioxoisoindolin-4-yl)glycyl)piperidin-4-yl)methyl)piperazin-1-yl)phenyl)amino)-9H-purin-9-yl)cyclobutyl)-6-fluoropicolinamide]
30/30/30%	30/30/30%	30/30/30%	0/0/0%	0/0/0%	0/0/0%	O=C1CC[C@H](N2C(=O)c3cccc(CCCN4CCC(CN5CCN(c6ccc(Nc7ncnc8c7ncn8C7CC(NC(=O)c8cccc(F)n8)C7)cc6)CC5)CC4)c3C2=O)C(=O)N1 (stereo partly drawn) [Compound 431, N-((1s,3s)-3-(6-((4-(4-((1-(3-(2-(2,6-dioxopiperidin-3-yl)-1,3-dioxoisoindolin-4-yl)propyl)piperidin-4-yl)methyl)piperazin-1-yl)phenyl)amino)-9H-purin-9-yl)cyclobutyl)-6-fluoropicolinamide]
